Reference: patent US12569484B2, “Use of phosphodiesterase 5 inhibitor in preparation of medicament for resisting fibrotic diseases” (SHENZHEN HANHUI PHARMACEUTICAL TECHNOLOGY CO., LTD., priority 2019, dated 2026)

Test system: idiopathic pulmonary fibrosis model rats
Test: Bleomycin-induced idiopathic pulmonary fibrosis model
Format: in vivo, male SD rats
Settings: IPF rats; for degree of pulmonary fibrosis in the left lung (Ashcroft score): oral once a day 14 days
Description: 48 male SD rats were randomly divided into 6 groups according to their body weights, with 8 rats in each group: a sham operation group (Sham), a model group, a nintedanib-50 mg/kg group (BIBF-50 mg/kg), a tadalafil-5 mg/kg group, a tadalafil-20 mg/kg group, and a sildenafil-20 mg/kg group. All the operations involved in this experiment were implemented under the guiding principle of KCI animal experiment operation SOP. After the animals were purchased, they were fed adaptively for 3-7 days before modeling. After weighing, the animals were anesthetized with isoflurane inhalation. After it was confirmed that the animals were anesthetized, the neck was sterilized, the skin of the neck was cut open, a main trachea was exposed by blunt dissection of muscle, a small incision was made between tracheal rings, a PE-20 tube was inserted into a left main bronchus, bleomycin (dosage: 3 mg/kg, volume: 1.0 ml/kg) was directly injected, and the trachea and skin were sutured. After the operation was completed, the animals were put in an electric blanket at 37° C. to keep them warm until they fully woke up, and the animals were returned into feeding cages for normal feeding after it was confirmed that they could eat and drink freely. • (i) sham operation group and model group: the mice were given normal saline by intragastric administration according to their body weights at a dosage of 1 ml·100 g^-1·d^-1; • (ii) nintedanib-50 mg/kg group (BIBF-50 mg/kg): BIBF was formulated into a 10 mg/ml solution with 0.5% sodium carboxymethyl cellulose, and administrated intragastrically at a dosage of 50 mg·kg^-1·d^-1; • (iii) tadalafil-5 mg/kg group: tadalafil was diluted into a 1 mg/ml solution with 0.5% sodium carboxymethylcellulose, and administrated intragastrically at a dosage of 5 mg·kg^-1·d^-1; • (iv) tadalafil-20 mg/kg group: tadalafil was diluted into a 4 mg/ml solution with 0.5% sodium carboxymethylcellulose, and administrated intragastrically at a dosage of 20 mg·kg^-1·d^-1; • (v) sildenafil-20 mg/kg group: sildenafil was diluted into a 4 mg/ml solution with 0.5% sodium carboxymethylcellulose, and administrated intragastrically at a dosage of 20 mg·kg^-1·d^-1, and • the rats in each group were administrated intragastrically once a day for 14 days in total on the day of modeling. • (1) according to an interspecific dosage conversion method currently adopted by FDA, USA, the conversion coefficient of rats and human was 0.162. Therefore, according to the dosage and time of intragastric administration of tadalafil in the mice in this example, it was inferred that the oral dosage of human was 0.81-3.24 mg·kg^-1·d^-1, and the administration time was 14 days; and according to the dosage and time of intragastric administration of sildenafil in the mice in this example, it was inferred that the oral dosage of human was 3.24 mg·kg^-1·d^-1, and the administration time was 14 days. • (2) according to dosage conversion among different routes of administration in pharmacological experimental methodology, a dosage ratio of intramuscular injection and intraperitoneal injection to oral administration was about 0.3-0.4, so it was inferred that the injection dosage of tadalafil in human was 0.243-1.296 ml·kg^-1·d^-1, and the administration time was 14 days (medicament concentration: 1 mg/ml); and the injection dosage of sildenafil in human was 0.972-1.296 ml·kg^-1·d^-1, and the administration time was 14 days (medicament concentration: 1 mg/ml). 2.4 Experimental Indexes and Determining Methods 2.4.1 Weight and Volume of Left Lung of IPF Rats After 14 days of continuous administration, all animals were euthanized by intraperitoneal injection of a pentobarbital sodium anesthetic (100 mg/kg) to the animals in each group according to a KCI standard operating procedure for animal euthanasia. All animals were perfused with low-temperature PBS systematically, and then perfused systematically with formalin for fixation. […]

[1] = 14 days intragastric, BIBF 50 mg/kg, tadalafil 5 and 20 mg/kg, sildenafil 20 mg/kg
[2] = BIBF 50 mg/kg, tadalafil 5 and 20 mg/kg, sildenafil 20 mg/kg, vs model group, p<0.05

Compound | alveolar tissue structure in the pulmonary fibrosis lesion of the left lung (HE staining) [1] | alveolar tissue structure in the pulmonary fibrosis lesion of the left lung (Masson Trichrom staining) [1] | pulmonary fibrosis lesion and lesion range in the left lung (H&E and Masson Trichrom staining) (14 days intragastric, BIBF 50 mg/kg, tadalafil 5 and 20 mg/kg, sildenafil 20 mg/kg, vs model group) | scores of injury degrees of bronchioles and pulmonary arterioles in the center and margin of the pulmonary fibrosis lesion (14 days intragastric, BIBF 50 mg/kg, tadalafil 5 and 20 mg/kg, sildenafil 20 mg/kg, vs model group, p<0.05) | percentage of the pulmonary fibrosis degree (Ashcroft score of 3 as a boundary) (14 days intragastric, vs model group, p<0.05) | degree of pulmonary fibrosis in the left lung (Ashcroft score) [2]
COC(=O)c1ccc2c(c1)NC(=O)/C2=C(\Nc1ccc(N(C)C(=O)CN2CCN(C)CC2)cc1)c1ccccc1 [BIBF, nintedanib] | some alveolar structures in the fibrosis lesion were still damaged | some alveolar structures disappeared in the fibrosis lesion | no significant difference | significantly decreased | significantly decreased | significantly improved
CCCc1nn(C)c2c(=O)[nH]c(-c3cc(S(=O)(=O)N4CCN(C)CC4)ccc3OCC)nc12 [sildenafil] | the alveolar structure in the fibrosis lesion was preserved | most of the alveolar structures in the fibrosis lesion were preserved | – | – | – | significantly inhibit
